{"source": "PubChem BioAssay (NCI)", "assay_in_all_cases": "inhibition of tumour cell growth, NCI panel, 48 h", "key": {"[1]": {"tested_on": "LXFL 529 NSCLC"}, "[2]": {"tested_on": "SNB-19 CNS"}, "[3]": {"tested_on": "SN12C renal"}, "[4]": {"tested_on": "M19-MEL melanoma"}, "[5]": {"tested_on": "SR leukemia"}, "[6]": {"tested_on": "SF-295 CNS"}, "[7]": {"tested_on": "OVCAR-5 ovarian"}, "[8]": {"tested_on": "HOP-18 NSCLC"}, "[9]": {"tested_on": "COLO 205 colon"}, "[10]": {"tested_on": "DMS 114 small cell lung"}, "[11]": {"tested_on": "SF-539 CNS"}, "[12]": {"tested_on": "OVCAR-8 ovarian"}, "[13]": {"tested_on": "HCC-2998 colon"}, "[14]": {"tested_on": "RXF-631 renal"}, "[15]": {"tested_on": "RPMI-8226 leukemia"}, "[16]": {"tested_on": "U251 CNS"}, "[17]": {"tested_on": "KM12 colon"}, "[18]": {"tested_on": "CCRF-CEM leukemia"}, "[19]": {"tested_on": "M14 melanoma"}, "[20]": {"tested_on": "MOLT-4 leukemia"}, "[21]": {"tested_on": "NCI-H522 lung"}, "[22]": {"tested_on": "A498 renal"}, "[23]": {"tested_on": "KM20L2 colon"}, "[24]": {"tested_on": "SK-MEL-2 melanoma"}, "[25]": {"tested_on": "SW-620 colon"}, "[26]": {"tested_on": "RXF 393 renal"}, "[27]": {"tested_on": "HOP-62 NSCLC"}, "[28]": {"tested_on": "OVCAR-3 ovarian"}, "[29]": {"tested_on": "NCI-H23 lung"}, "[30]": {"tested_on": "A549 NSCLC"}, "[31]": {"tested_on": "UACC-257 melanoma"}, "[32]": {"tested_on": "NCI-H226 lung"}, "[33]": {"tested_on": "NCI-H460 lung"}, "[34]": {"tested_on": "IGROV1 ovarian"}, "[35]": {"tested_on": "HCT-15 colon"}, "[36]": {"tested_on": "SF-268 CNS"}, "[37]": {"tested_on": "LOX IMVI melanoma"}, "[38]": {"tested_on": "UO-31 renal"}, "[39]": {"tested_on": "EKVX NSCLC"}, "[40]": {"tested_on": "SK-MEL-5 melanoma"}, "[41]": {"tested_on": "DLD-1 colon"}, "[42]": {"tested_on": "HCT-116 colon"}, "[43]": {"tested_on": "CAKI-1 renal"}, "[44]": {"tested_on": "TK-10 renal"}, "[45]": {"tested_on": "HL-60(TB) leukemia"}, "[46]": {"tested_on": "OVCAR-4 ovarian"}, "[47]": {"tested_on": "MALME-3M melanoma"}, "[48]": {"tested_on": "K-562 leukemia"}, "[49]": {"tested_on": "HT29 colon"}, "[50]": {"tested_on": "ACHN renal"}, "[51]": {"tested_on": "HOP-92 NSCLC"}, "[52]": {"tested_on": "SNB-75 CNS"}, "[53]": {"tested_on": "UACC-62 melanoma"}, "[54]": {"tested_on": "786-0 renal"}, "[55]": {"tested_on": "SK-MEL-28 melanoma"}, "[56]": {"tested_on": "SNB-78 CNS"}}, "note": "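Interpolation was linear, between the two tested concentrations surrounding the appropriate level; five concentrations were tested over 48 hours in 96-well plates. TGI: concentration producing complete growth inhibition.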"}
{"molecule": "C=CCC1(CN(C)C)CC/C(=C\\c2cc(OC)c(OC)c(OC)c2)C1=O", "note": "(stereo unspecified)", "values": [{"measurement": "TGI", "setting": "[1]", "result": 35.2, "unit": "µM"}, {"measurement": "TGI", "setting": "[2]", "result": "> 100", "unit": "µM"}, {"measurement": "TGI", "setting": "[3]", "result": 54.8, "unit": "µM"}, {"measurement": "TGI", "setting": "[4]", "result": "> 100", "unit": "µM"}, {"measurement": "TGI", "setting": "[5]", "result": 49.1, "unit": "µM"}, {"measurement": "TGI", "setting": "[6]", "result": 92.8, "unit": "µM"}, {"measurement": "TGI", "setting": "[7]", "result": "> 100", "unit": "µM"}, {"measurement": "TGI", "setting": "[8]", "result": "> 100", "unit": "µM"}, {"measurement": "TGI", "setting": "[9]", "result": 31.3, "unit": "µM"}, {"measurement": "TGI", "setting": "[10]", "result": 39.5, "unit": "µM"}, {"measurement": "TGI", "setting": "[11]", "result": 35, "unit": "µM"}, {"measurement": "TGI", "setting": "[12]", "result": 54.6, "unit": "µM"}, {"measurement": "TGI", "setting": "[13]", "result": 35.5, "unit": "µM"}, {"measurement": "TGI", "setting": "[14]", "result": 60.9, "unit": "µM"}, {"measurement": "TGI", "setting": "[15]", "result": 59.6, "unit": "µM"}, {"measurement": "TGI", "setting": "[16]", "result": 59.5, "unit": "µM"}, {"measurement": "TGI", "setting": "[17]", "result": 32.8, "unit": "µM"}, {"measurement": "TGI", "setting": "[18]", "result": 51.9, "unit": "µM"}, {"measurement": "TGI", "setting": "[19]", "result": 38.4, "unit": "µM"}, {"measurement": "TGI", "setting": "[20]", "result": 78.8, "unit": "µM"}, {"measurement": "TGI", "setting": "[21]", "result": 29.4, "unit": "µM"}, {"measurement": "TGI", "setting": "[22]", "result": 79, "unit": "µM"}, {"measurement": "TGI", "setting": "[23]", "result": 44.4, "unit": "µM"}, {"measurement": "TGI", "setting": "[24]", "result": "> 100", "unit": "µM"}, {"measurement": "TGI", "setting": "[25]", "result": 33.6, "unit": "µM"}, {"measurement": "TGI", "setting": "[26]", "result": 37.3, "unit": "µM"}, {"measurement": "TGI", "setting": "[27]", "result": "> 100", "unit": "µM"}, {"measurement": "TGI", "setting": "[28]", "result": 69.2, "unit": "µM"}, {"measurement": "TGI", "setting": "[29]", "result": "> 100", "unit": "µM"}, {"measurement": "TGI", "setting": "[30]", "result": "> 100", "unit": "µM"}, {"measurement": "TGI", "setting": "[31]", "result": 58.3, "unit": "µM"}, {"measurement": "TGI", "setting": "[32]", "result": "> 100", "unit": "µM"}, {"measurement": "TGI", "setting": "[33]", "result": 36.9, "unit": "µM"}, {"measurement": "TGI", "setting": "[34]", "result": 74.6, "unit": "µM"}, {"measurement": "TGI", "setting": "[35]", "result": 35.2, "unit": "µM"}, {"measurement": "TGI", "setting": "[36]", "result": 51.6, "unit": "µM"}, {"measurement": "TGI", "setting": "[37]", "result": 43, "unit": "µM"}, {"measurement": "TGI", "setting": "[38]", "result": 77, "unit": "µM"}, {"measurement": "TGI", "setting": "[39]", "result": 61.4, "unit": "µM"}, {"measurement": "TGI", "setting": "[40]", "result": 35.3, "unit": "µM"}, {"measurement": "TGI", "setting": "[41]", "result": 38.5, "unit": "µM"}, {"measurement": "TGI", "setting": "[42]", "result": 31.3, "unit": "µM"}, {"measurement": "TGI", "setting": "[43]", "result": "> 100", "unit": "µM"}, {"measurement": "TGI", "setting": "[44]", "result": 36.4, "unit": "µM"}, {"measurement": "TGI", "setting": "[45]", "result": 20.6, "unit": "µM"}, {"measurement": "TGI", "setting": "[46]", "result": 50.4, "unit": "µM"}, {"measurement": "TGI", "setting": "[47]", "result": "> 100", "unit": "µM"}, {"measurement": "TGI", "setting": "[48]", "result": 54.1, "unit": "µM"}, {"measurement": "TGI", "setting": "[49]", "result": 40.6, "unit": "µM"}, {"measurement": "TGI", "setting": "[50]", "result": 70.8, "unit": "µM"}, {"measurement": "TGI", "setting": "[51]", "result": "> 100", "unit": "µM"}, {"measurement": "TGI", "setting": "[52]", "result": "> 100", "unit": "µM"}, {"measurement": "TGI", "setting": "[53]", "result": 43.1, "unit": "µM"}, {"measurement": "TGI", "setting": "[54]", "result": 39.3, "unit": "µM"}, {"measurement": "TGI", "setting": "[55]", "result": "> 100", "unit": "µM"}, {"measurement": "TGI", "setting": "[56]", "result": "> 100", "unit": "µM"}]}
